Measurements from ChEMBL document CHEMBL4665621, “The discovery of VU0652957 (VU2957, Valiglurax): SAR and DMPK challenges en route to an mGlu PAM development candidate” (Bioorg Med Chem Lett, 2019).

tested on: not listed separately; experiment: Protein binding in human plasma assessed as unbound fraction; assay type: ADME, cell-free; details: not given

SMILES | Fu [fraction]
FC(F)c1nccc2cc(Nc3n[nH]c4cccnc34)ccc12 | 0.03
Cn1nccc1-c1nccc2cc(Nc3n[nH]c4cccnc34)ccc12 | 0.096
c1cnc2c(Nc3ccc4c(-n5cccn5)nccc4c3)n[nH]c2c1 | 0.09
c1cnc2c(Nc3ccc4cnccc4c3)n[nH]c2c1 | 0.092

target: Cytochrome P450 2D6 (Homo sapiens, UniProt P10635); experiment: Inhibition of CYP2D6 (unknown origin); assay type: ADME; details: not given
Sequence (P10635 whole entry): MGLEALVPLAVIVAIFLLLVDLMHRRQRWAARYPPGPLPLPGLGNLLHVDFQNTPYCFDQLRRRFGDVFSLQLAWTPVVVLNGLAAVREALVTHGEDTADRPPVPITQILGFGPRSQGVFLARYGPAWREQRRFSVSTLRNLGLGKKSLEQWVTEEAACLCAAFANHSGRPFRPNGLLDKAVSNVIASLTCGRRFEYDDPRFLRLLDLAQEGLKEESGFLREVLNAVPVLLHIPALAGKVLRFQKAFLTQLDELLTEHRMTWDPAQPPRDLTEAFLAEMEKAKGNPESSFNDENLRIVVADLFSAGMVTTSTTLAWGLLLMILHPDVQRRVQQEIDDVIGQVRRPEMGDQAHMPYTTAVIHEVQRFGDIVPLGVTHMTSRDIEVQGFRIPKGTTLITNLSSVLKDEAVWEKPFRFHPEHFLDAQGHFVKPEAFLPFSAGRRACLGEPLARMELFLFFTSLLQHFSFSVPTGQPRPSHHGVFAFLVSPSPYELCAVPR

SMILES | IC50 [nM]
FC(F)c1nccc2cc(Nc3n[nH]c4cccnc34)ccc12 | > 30000
c1cnc2c(Nc3ccc4c(-n5cccn5)nccc4c3)n[nH]c2c1 | 7200
c1cnc2c(Nc3ccc4cnccc4c3)n[nH]c2c1 | 3980

tested on: not listed separately; experiment: Brain to plasma partition coefficient, Kp of the compound in Sprague-Dawley rat at 0.20 to 0.25 mg/kg, iv cassette dose measured at 0.25 hrs; assay type: ADME, organism-based; details: dose 0.20-0.25 mg/kg

SMILES | Kp at 0.25 h
FC(F)(F)c1nccc2cc(Nc3n[nH]c4cccnc34)ccc12 | 4.3
CC(c1nccc2cc(Nc3n[nH]c4cccnc34)ccc12)C(F)(F)F (stereo not given) | 2.2
FC(F)c1nccc2cc(Nc3n[nH]c4cccnc34)ccc12 | 2.2
Cn1nccc1-c1nccc2cc(Nc3n[nH]c4cccnc34)ccc12 | 1.6
c1cnc2c(Nc3ccc4c(-n5cccn5)nccc4c3)n[nH]c2c1 | 1.37
FC(F)(F)c1nccc2cc(Nc3n[nH]c4ncccc34)ccc12 | 1.5

target: Cytochrome P450 2C19 (Homo sapiens, UniProt P33261); experiment: Inhibition of CYP2C19 (unknown origin); assay type: ADME; details: not given
Sequence (P33261 whole entry): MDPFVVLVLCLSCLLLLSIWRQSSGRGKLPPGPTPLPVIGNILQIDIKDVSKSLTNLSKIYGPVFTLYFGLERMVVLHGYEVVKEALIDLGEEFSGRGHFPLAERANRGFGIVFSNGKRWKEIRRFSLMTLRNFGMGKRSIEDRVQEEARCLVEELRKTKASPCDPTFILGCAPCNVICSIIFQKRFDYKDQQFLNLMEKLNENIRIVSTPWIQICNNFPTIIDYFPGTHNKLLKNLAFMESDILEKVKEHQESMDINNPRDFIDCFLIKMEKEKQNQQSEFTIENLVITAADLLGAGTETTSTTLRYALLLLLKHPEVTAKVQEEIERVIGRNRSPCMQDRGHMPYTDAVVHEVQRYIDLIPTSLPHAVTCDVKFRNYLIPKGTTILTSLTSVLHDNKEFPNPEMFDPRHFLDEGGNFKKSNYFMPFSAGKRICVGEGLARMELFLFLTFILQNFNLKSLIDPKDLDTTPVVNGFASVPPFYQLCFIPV

SMILES | IC50 [nM]
FC(F)(F)c1nccc2cc(Nc3n[nH]c4ncccc34)ccc12 | 12500

target: Cytochrome P450 3A4 (Homo sapiens, UniProt P08684); experiment: Inhibition of CYP3A4 (unknown origin); assay type: ADME; details: not given
Sequence (P08684 whole entry): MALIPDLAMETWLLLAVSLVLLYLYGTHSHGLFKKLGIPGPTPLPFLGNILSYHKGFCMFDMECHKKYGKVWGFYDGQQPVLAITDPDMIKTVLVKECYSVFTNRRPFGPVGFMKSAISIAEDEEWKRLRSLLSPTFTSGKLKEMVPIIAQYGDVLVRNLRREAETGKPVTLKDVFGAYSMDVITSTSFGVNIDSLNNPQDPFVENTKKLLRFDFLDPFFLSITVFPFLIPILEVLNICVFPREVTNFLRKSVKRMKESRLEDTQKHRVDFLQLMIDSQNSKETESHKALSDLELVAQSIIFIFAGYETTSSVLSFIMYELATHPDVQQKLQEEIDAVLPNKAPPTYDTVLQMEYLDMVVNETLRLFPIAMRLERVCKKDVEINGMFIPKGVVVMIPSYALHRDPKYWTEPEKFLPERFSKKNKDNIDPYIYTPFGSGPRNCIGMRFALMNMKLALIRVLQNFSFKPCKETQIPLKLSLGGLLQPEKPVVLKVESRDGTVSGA

SMILES | IC50 [nM]
FC(F)c1nccc2cc(Nc3n[nH]c4cccnc34)ccc12 | > 30000
c1cnc2c(Nc3ccc4c(-n5cccn5)nccc4c3)n[nH]c2c1 | 13000
O=c1[nH]ccc2cc(Nc3n[nH]c4cccnc34)ccc12 | > 30000
c1cnc2c(Nc3ccc4cnccc4c3)n[nH]c2c1 | 440

tested on: Rattus norvegicus; experiment: Reversal of haloperidol-induced catalepsy in po dosed rat assessed as minimum effective dose; assay type: functional; details: read-out: MED

SMILES | minimal effective dose [mg/kg]
FC(F)(F)c1nccc2cc(Nc3n[nH]c4ncccc34)ccc12 | 1

tested on: Rattus norvegicus; experiment: Reversal of haloperidol-induced catalepsy in rat assessed as reduction in catalepsy at 3 mg/kg, po dosed along with 1.5 mg/kg haloperidol relative to untreated control; assay type: functional; parameters: scale not given: the % may be the effect or the level left; details: not given

SMILES | Activity [%]
FC(F)(F)c1nccc2cc(Nc3n[nH]c4cccnc34)ccc12 | 24
FC(F)c1nccc2cc(Nc3n[nH]c4cccnc34)ccc12 | 45
FC(F)(F)c1nccc2cc(Nc3n[nH]c4ncccc34)ccc12 | 50
FC(F)(F)c1nccc2cc(Nc3n[nH]c4nccnc34)ccc12 | 24

target: T1, Metabotropic glutamate receptor 4 (Homo sapiens, UniProt Q14833); experiment: Positive allosteric modulator activity at human mGlu4 receptor/Gqi5 in presence of EC20 glutamate by calcium mobilization assay; assay type: functional; details: not given
T1 sequence (Q14833 whole entry): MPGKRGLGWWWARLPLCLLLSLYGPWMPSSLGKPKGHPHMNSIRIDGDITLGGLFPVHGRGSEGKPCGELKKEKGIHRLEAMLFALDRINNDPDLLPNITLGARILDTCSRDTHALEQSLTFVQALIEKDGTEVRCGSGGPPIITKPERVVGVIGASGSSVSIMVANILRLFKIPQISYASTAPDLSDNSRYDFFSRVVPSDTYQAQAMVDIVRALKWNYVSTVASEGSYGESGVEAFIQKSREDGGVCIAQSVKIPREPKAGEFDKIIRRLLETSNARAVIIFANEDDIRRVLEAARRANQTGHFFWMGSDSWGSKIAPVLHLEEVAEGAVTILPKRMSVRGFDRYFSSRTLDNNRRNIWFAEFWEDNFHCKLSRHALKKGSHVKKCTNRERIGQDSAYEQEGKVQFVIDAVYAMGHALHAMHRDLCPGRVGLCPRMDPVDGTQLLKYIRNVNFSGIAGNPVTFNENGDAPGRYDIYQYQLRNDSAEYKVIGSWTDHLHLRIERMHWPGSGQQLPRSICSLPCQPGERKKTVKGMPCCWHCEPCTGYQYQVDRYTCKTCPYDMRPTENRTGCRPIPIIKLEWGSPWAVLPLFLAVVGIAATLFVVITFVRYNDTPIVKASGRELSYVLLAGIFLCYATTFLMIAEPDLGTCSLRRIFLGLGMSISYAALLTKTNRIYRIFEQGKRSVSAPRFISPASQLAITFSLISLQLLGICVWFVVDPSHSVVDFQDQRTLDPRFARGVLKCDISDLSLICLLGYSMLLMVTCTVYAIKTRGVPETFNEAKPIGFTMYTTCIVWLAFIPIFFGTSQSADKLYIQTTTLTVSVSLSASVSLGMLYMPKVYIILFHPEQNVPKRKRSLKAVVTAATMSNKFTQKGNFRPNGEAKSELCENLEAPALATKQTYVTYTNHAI

SMILES | EC50 [nM]
FC(F)(F)c1nccc2cc(Nc3n[nH]c4cccnc34)ccc12 | 18
Cn1nc(C(F)(F)F)cc1-c1nccc2cc(Nc3n[nH]c4cccnc34)ccc12 | 132
c1cnc2c(Nc3ccc4ncncc4c3)n[nH]c2c1 | > 10000
c1cnc2c(Nc3ccc4c(N5CCCCC5)nccc4c3)n[nH]c2c1 | 215
COCCNc1nccc2cc(Nc3n[nH]c4cccnc34)ccc12 | 121
CC(c1nccc2cc(Nc3n[nH]c4cccnc34)ccc12)C(F)(F)F (stereo not given) | 36
Cc1cc(C)n(-c2nccc3cc(Nc4n[nH]c5cccnc45)ccc23)n1 | 726
c1ccc(CNc2nccc3cc(Nc4n[nH]c5cccnc45)ccc23)cc1 | 1360
O=c1c2ccc(Nc3n[nH]c4cccnc34)cc2ccn1CC1CCC1 | 653
CCc1nccc2cc(Nc3n[nH]c4cccnc34)ccc12 | 45
FC(F)c1nccc2cc(Nc3n[nH]c4cccnc34)ccc12 | 8
Cn1nccc1-c1nccc2cc(Nc3n[nH]c4cccnc34)ccc12 | 45
FC(F)(F)C1CCCCN1c1nccc2cc(Nc3n[nH]c4cccnc34)ccc12 (stereo not given) | 306
c1cnc2c(Nc3ccc4c(C5CC5)nccc4c3)n[nH]c2c1 | 71
CN1CCN(c2nccc3cc(Nc4n[nH]c5cccnc45)ccc23)CC1 | 1290
c1cnc2c(Nc3ccc4c(-n5cccn5)nccc4c3)n[nH]c2c1 | 63
Cc1ccn(-c2nccc3cc(Nc4n[nH]c5cccnc45)ccc23)n1 | 237

SMILES | EC50 [nM]
c1cnc2c(Nc3ccc4ccncc4c3)n[nH]c2c1 | > 10000
O=c1c2ccc(Nc3n[nH]c4cccnc34)cc2ccn1C1CCCC1 | 1730
O=c1[nH]ccc2cc(Nc3n[nH]c4cccnc34)ccc12 | 264
c1cnc2ccc(Nc3n[nH]c4cccnc34)cc2c1 | 732
CC(C)Cn1ccc2cc(Nc3n[nH]c4cccnc34)ccc2c1=O | 685
c1cnc2c(Nc3ccc4cnccc4c3)n[nH]c2c1 | 76
FC(F)(F)c1nccc2cc(Nc3n[nH]c4ncccc34)ccc12 | 65
c1cnc2cc(Nc3n[nH]c4cccnc34)ccc2c1 | > 10000
c1cnc2c(Nc3ccc4nccnc4c3)n[nH]c2c1 | > 10000
c1cnc2c(Nc3ccc4c(NC5CCC5)nccc4c3)n[nH]c2c1 | 869
CCN(CC)c1nccc2cc(Nc3n[nH]c4cccnc34)ccc12 | 164
Cn1ccc2cc(Nc3n[nH]c4cccnc34)ccc2c1=O | > 10000
FC(F)(F)c1nccc2cc(Nc3n[nH]c4nccnc34)ccc12 | 51
FC1(F)CCN(c2nccc3cc(Nc4n[nH]c5cccnc45)ccc23)C1 | 249
c1cnc2c(Nc3ccc4cnccc4n3)n[nH]c2c1 | > 10000
c1ccc2cc(Nc3n[nH]c4cccnc34)ccc2c1 | 403
c1cnc2c(Nc3ccc4c(N5CCCC5)nccc4c3)n[nH]c2c1 | 1690

target: Metabotropic glutamate receptor 4 (Rattus norvegicus) (UniProt P31423); experiment: Positive allosteric modulator activity at rat mGlu4 receptor/Gqi5 assessed as maximum activity by calcium mobilization assay relative to glutamic acid; assay type: functional; details: filed as positive allosteric modulator
Sequence (P31423 whole entry): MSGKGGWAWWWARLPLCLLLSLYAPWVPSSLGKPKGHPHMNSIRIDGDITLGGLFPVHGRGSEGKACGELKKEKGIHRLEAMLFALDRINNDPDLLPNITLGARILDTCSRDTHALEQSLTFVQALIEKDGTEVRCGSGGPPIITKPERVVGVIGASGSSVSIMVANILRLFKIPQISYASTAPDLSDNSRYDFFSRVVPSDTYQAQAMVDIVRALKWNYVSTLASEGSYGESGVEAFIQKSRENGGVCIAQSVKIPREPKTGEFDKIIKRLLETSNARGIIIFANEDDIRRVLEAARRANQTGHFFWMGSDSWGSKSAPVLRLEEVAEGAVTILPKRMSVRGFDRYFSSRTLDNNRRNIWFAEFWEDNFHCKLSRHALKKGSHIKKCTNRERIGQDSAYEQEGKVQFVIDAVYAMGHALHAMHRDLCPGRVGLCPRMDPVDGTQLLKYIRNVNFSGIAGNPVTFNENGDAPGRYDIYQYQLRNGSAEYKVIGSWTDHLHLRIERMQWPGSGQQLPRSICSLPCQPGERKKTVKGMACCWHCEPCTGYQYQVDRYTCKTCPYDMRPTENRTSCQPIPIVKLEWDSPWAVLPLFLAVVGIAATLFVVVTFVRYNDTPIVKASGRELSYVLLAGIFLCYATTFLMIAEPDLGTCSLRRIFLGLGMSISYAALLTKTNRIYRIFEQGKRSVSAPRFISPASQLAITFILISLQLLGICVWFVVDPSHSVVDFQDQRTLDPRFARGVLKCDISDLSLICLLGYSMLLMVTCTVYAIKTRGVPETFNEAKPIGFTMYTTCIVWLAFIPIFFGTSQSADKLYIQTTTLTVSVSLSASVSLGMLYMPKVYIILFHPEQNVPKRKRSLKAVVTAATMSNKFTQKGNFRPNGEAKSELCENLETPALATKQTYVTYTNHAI

SMILES | Emax [%]
FC(F)(F)c1nccc2cc(Nc3n[nH]c4ncccc34)ccc12 | 123

target: T1, Metabotropic glutamate receptor 4; experiment: Positive allosteric modulator activity at human mGlu4 receptor/Gqi5 assessed as maximum activity at 30 uM by calcium mobilization assay relative to glutamic acid; assay type: functional; details: filed as positive allosteric modulator

SMILES | Activity [%]
FC(F)(F)c1nccc2cc(Nc3n[nH]c4cccnc34)ccc12 | 77
Cn1nc(C(F)(F)F)cc1-c1nccc2cc(Nc3n[nH]c4cccnc34)ccc12 | 84
c1cnc2c(Nc3ccc4c(N5CCCCC5)nccc4c3)n[nH]c2c1 | 74
COCCNc1nccc2cc(Nc3n[nH]c4cccnc34)ccc12 | 89
CC(c1nccc2cc(Nc3n[nH]c4cccnc34)ccc12)C(F)(F)F (stereo not given) | 100
Cc1cc(C)n(-c2nccc3cc(Nc4n[nH]c5cccnc45)ccc23)n1 | 70
c1ccc(CNc2nccc3cc(Nc4n[nH]c5cccnc45)ccc23)cc1 | 58
O=c1c2ccc(Nc3n[nH]c4cccnc34)cc2ccn1CC1CCC1 | 31
CCc1nccc2cc(Nc3n[nH]c4cccnc34)ccc12 | 64
FC(F)c1nccc2cc(Nc3n[nH]c4cccnc34)ccc12 | 67
Cn1nccc1-c1nccc2cc(Nc3n[nH]c4cccnc34)ccc12 | 78
FC(F)(F)C1CCCCN1c1nccc2cc(Nc3n[nH]c4cccnc34)ccc12 (stereo not given) | 57
c1cnc2c(Nc3ccc4c(C5CC5)nccc4c3)n[nH]c2c1 | 86
CN1CCN(c2nccc3cc(Nc4n[nH]c5cccnc45)ccc23)CC1 | 72
c1cnc2c(Nc3ccc4c(-n5cccn5)nccc4c3)n[nH]c2c1 | 85
Cc1ccn(-c2nccc3cc(Nc4n[nH]c5cccnc45)ccc23)n1 | 84
O=c1c2ccc(Nc3n[nH]c4cccnc34)cc2ccn1C1CCCC1 | 22
O=c1[nH]ccc2cc(Nc3n[nH]c4cccnc34)ccc12 | 77
c1cnc2ccc(Nc3n[nH]c4cccnc34)cc2c1 | 42
CC(C)Cn1ccc2cc(Nc3n[nH]c4cccnc34)ccc2c1=O | 24
c1cnc2c(Nc3ccc4cnccc4c3)n[nH]c2c1 | 114
FC(F)(F)c1nccc2cc(Nc3n[nH]c4ncccc34)ccc12 | 93
c1cnc2c(Nc3ccc4c(NC5CCC5)nccc4c3)n[nH]c2c1 | 71
CCN(CC)c1nccc2cc(Nc3n[nH]c4cccnc34)ccc12 | 95
Cn1ccc2cc(Nc3n[nH]c4cccnc34)ccc2c1=O | 30
FC(F)(F)c1nccc2cc(Nc3n[nH]c4nccnc34)ccc12 | 83
FC1(F)CCN(c2nccc3cc(Nc4n[nH]c5cccnc45)ccc23)C1 | 75
c1ccc2cc(Nc3n[nH]c4cccnc34)ccc2c1 | 79
c1cnc2c(Nc3ccc4c(N5CCCC5)nccc4c3)n[nH]c2c1 | 54

target: T2, Cytochrome P450 1A2 (Homo sapiens, UniProt P05177); experiment: Inhibition of CYP1A2 (unknown origin); assay type: ADME; details: not given
T2 sequence (P05177 whole entry): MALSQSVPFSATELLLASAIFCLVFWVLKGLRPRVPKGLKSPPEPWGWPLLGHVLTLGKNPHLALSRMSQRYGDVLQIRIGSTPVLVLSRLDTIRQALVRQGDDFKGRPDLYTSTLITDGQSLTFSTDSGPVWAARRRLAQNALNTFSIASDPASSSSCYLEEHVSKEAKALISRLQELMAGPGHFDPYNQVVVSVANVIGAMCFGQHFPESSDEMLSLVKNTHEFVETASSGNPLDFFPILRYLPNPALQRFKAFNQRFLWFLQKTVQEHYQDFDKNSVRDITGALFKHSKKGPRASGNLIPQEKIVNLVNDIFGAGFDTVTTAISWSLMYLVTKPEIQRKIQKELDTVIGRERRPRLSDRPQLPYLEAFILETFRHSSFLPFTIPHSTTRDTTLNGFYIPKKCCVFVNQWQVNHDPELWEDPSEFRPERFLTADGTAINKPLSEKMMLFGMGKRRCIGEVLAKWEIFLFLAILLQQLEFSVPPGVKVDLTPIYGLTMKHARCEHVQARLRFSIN

SMILES | IC50 [nM]
CCc1nccc2cc(Nc3n[nH]c4cccnc34)ccc12 | < 1000
FC(F)c1nccc2cc(Nc3n[nH]c4cccnc34)ccc12 | 300
c1cnc2c(Nc3ccc4c(C5CC5)nccc4c3)n[nH]c2c1 | < 1000
c1cnc2c(Nc3ccc4c(-n5cccn5)nccc4c3)n[nH]c2c1 | 1500
O=c1[nH]ccc2cc(Nc3n[nH]c4cccnc34)ccc12 | 3300
c1cnc2c(Nc3ccc4cnccc4c3)n[nH]c2c1 | 150

tested on: not listed separately; experiment: Hepatic clearance in human; assay type: ADME; details: not given

SMILES | CLH [mL/min/kg]
Cn1nccc1-c1nccc2cc(Nc3n[nH]c4cccnc34)ccc12 | 11.5
c1cnc2c(Nc3ccc4c(-n5cccn5)nccc4c3)n[nH]c2c1 | 35.7

tested on: not listed separately; experiment: Volume of distribution at steady state in rat; assay type: ADME; details: in vivo

SMILES | Vdss [L/kg]
c1cnc2c(Nc3ccc4cnccc4c3)n[nH]c2c1 | 4.88

target: Metabotropic glutamate receptor 4 (Rattus norvegicus, UniProt P31423); experiment: Positive allosteric modulator activity at rat mGlu4 receptor/Gqi5 in presence of EC20 glutamate by calcium mobilization assay; assay type: functional; details: not given
Sequence (P31423 whole entry): as the sequence (P31423 whole entry) above

SMILES | EC50 [nM]
FC(F)(F)c1nccc2cc(Nc3n[nH]c4ncccc34)ccc12 | 197

tested on: not listed separately; experiment: Half life in rat; assay type: ADME; details: in vivo

SMILES | half-life [h] | t1/2 [h]
FC(F)(F)c1nccc2cc(Nc3n[nH]c4cccnc34)ccc12 | < 1 | 
c1cnc2c(Nc3ccc4cnccc4c3)n[nH]c2c1 |  | 10.2
FC(F)(F)c1nccc2cc(Nc3n[nH]c4nccnc34)ccc12 | < 1 | 

tested on: not listed separately; experiment: Protein binding in rat plasma assessed as unbound fraction; assay type: ADME, cell-free; details: not given

SMILES | Fu [fraction] | fraction unbound
FC(F)c1nccc2cc(Nc3n[nH]c4cccnc34)ccc12 | 0.032 | 
Cn1nccc1-c1nccc2cc(Nc3n[nH]c4cccnc34)ccc12 | 0.088 | 
c1cnc2c(Nc3ccc4c(-n5cccn5)nccc4c3)n[nH]c2c1 | 0.046 | 
c1cnc2c(Nc3ccc4cnccc4c3)n[nH]c2c1 |  | 0.046

target: Cytochrome P450 2C9 (Homo sapiens, UniProt P11712); experiment: Inhibition of CYP2C9 (unknown origin); assay type: ADME; details: not given
Sequence (P11712 whole entry): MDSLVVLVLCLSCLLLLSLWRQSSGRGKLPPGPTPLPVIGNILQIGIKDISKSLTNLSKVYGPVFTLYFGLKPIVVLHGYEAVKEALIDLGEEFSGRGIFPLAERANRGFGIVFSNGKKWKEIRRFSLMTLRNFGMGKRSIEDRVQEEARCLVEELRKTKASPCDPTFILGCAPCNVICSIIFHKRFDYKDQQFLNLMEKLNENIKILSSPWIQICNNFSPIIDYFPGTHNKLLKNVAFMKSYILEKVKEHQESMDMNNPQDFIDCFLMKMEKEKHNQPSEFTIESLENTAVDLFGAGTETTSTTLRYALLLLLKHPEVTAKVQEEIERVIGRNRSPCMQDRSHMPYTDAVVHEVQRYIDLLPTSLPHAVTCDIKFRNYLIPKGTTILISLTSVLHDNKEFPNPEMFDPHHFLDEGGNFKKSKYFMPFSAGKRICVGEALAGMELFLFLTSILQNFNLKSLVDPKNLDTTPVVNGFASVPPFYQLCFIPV

SMILES | IC50 [nM]
FC(F)c1nccc2cc(Nc3n[nH]c4cccnc34)ccc12 | 30000
c1cnc2c(Nc3ccc4c(-n5cccn5)nccc4c3)n[nH]c2c1 | 7300
O=c1[nH]ccc2cc(Nc3n[nH]c4cccnc34)ccc12 | > 30000
c1cnc2c(Nc3ccc4cnccc4c3)n[nH]c2c1 | 1350

tested on: not listed separately; experiment: Fraction unbound in rat brain homogenate; assay type: ADME, tissue-based; details: not given

SMILES | Fu [%]
c1cnc2c(Nc3ccc4c(-n5cccn5)nccc4c3)n[nH]c2c1 | 0.029
c1cnc2c(Nc3ccc4cnccc4c3)n[nH]c2c1 | 0.029
